Experimental findings from US7326700B2, “Cyclohexenyl phenyl carboxamides tocolytic oxytocin receptor antagonists” (Wyeth, priority 2001, dated 2008) are described below.

Where a name gives a salt, the structure may show the parent alone.

In the first experiment the target is T1, human vasopressin V2 receptor subtype (Homo sapiens, UniProt P30518).
T1 construct: host or cells: CHO cells, stably transfected (pZeoSV vector)
T1 sequence (P30518 whole entry): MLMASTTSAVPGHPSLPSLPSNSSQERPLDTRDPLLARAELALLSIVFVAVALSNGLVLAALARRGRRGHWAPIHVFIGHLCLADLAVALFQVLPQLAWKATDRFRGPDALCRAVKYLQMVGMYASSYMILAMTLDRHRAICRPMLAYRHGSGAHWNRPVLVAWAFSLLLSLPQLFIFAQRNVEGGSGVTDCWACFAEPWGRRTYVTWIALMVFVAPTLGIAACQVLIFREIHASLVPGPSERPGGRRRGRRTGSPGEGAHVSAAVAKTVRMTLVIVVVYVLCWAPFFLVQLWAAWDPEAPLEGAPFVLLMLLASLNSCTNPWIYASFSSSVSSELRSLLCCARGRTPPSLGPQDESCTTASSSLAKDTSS
Briefly: Vasopressin binding in CHO cell membranes expressing human vasopressin V2 subtype receptors ([3H]arginine vasopressin radioligand binding). The following applies: 100 nM. From the text: Chinese Hamster Ovary (CHO) cells stably transfected with the human V2 subtype receptors were obtained from M. Thibonnier, Case Western Reserve University School of Medicine, Cleveland, Ohio.
CHO cells transfected with the human vasopressin V2 subtype receptors obtained from M. Thibonnier (pZeoSV vector) are allowed to grow to confluency (approx. >90%) in T-150 flasks under sterile conditions, in a cell culture medium consisting of F-12 Nutrient Mixture (HAM) with L-glutamine (Gibco Cat. #11765-054) containing 15 mM HEPES (Gibco Cat. #15630-080), 1% antibiotic/antimycotic (add 5 mL 100×, Gibco Cat. #15240-062 per 500 mL F-12), 250 μg/mL Zeocin (add 1.25 mL of 100 mg/mL Invitrogen R-250-01 per 500 mL F-12) and 10% Fetal Bovine Serum (Qualified, heat inactivated, Gibco Cat. #16140-063). The medium is removed by aspiration and the cells washed with 10 mL of Hank's Balanced Salt solution (Gibco Cat. #14175-095). The salt solution is removed by aspiration and the cells trypsinized with 5 mL of trypsin-EDTA (0.05% trypsin, 0.53 mM EDTA-4Na, Gibco Cat. #25300-070) for 1 min. The trypsin is removed by aspiration and the cells dislodged by tapping. Cell Culture medium (e.g. 30 mL for 1:30 split) is immediately added and mixed well to inactivate trypsin. 1 mL of detached cells is added to new culture flasks containing fresh Cell Culture medium (e.g. into 25 mL per T-150 flask), and mixed gently. The cells are incubated at 37° C. in 5% CO2. The medium is changed at 3 to 4 day interval (or as appropriate). The cells grow to confluency (approx. >75%-95%) within 7-8 days. All steps are done under sterile conditions.
The cells are washed twice gently with Hank's Balanced Salt solution (e.g. use 10 mL per T-150 flask). The excess solution is removed and the cells bathed for 15-30 min. in an enzyme-free Cell Dissociation Buffer (e.g. use 8 mL Hank's Based, Gibco Cat. #13150-016 per T-150 flask) until cells are loosened. The contents are transferred to centrifuge tubes (50 mL) kept in an ice bath. All subsequent steps are done at 4° C. The tubes are centrifuged at 300×g for 15 min (1380 rpm on SORVAL, Model RT6000D, using the rotor for 50 mL tubes). The supernatant is discarded and the cells suspended in homogeneizing buffer(10 mM Tris-HCl containing 0.25 M sucrose and 1 mM EDTA, pH 7.4) ensuring that the volume of the buffer is about ten times the volume of the cell pellet. The cells are pooled into a centrifuge tube (50 mL) and homogenized with Polytron at setting 6 for 10 sec. The homogenate is transferred into a Potter-Elvjehm homogeneizer and homogenized with 3 strokes. The homogenate is centrifuged at 1500×g for 60 min at 4° C. (3100 rpm using SORVAL, model RT6000D, using the rotor for 50 mL tubes). The pellet is discarded. The supernatant is centrifuged at 100,000×g for 60 min. at 4° C. (Beckman L8-80M ultracentrifuge; spin at 37,500 rpm with rotor type 70 Ti for 50 mL tubes; 38,000 rpm with type 80 Ti for 15 mL tubes; or 35,800 rpm with rotor type 45Ti). The supernantant is discarded and the pellet suspended in 3 to 4 mL of Tris buffer (50 mM TRIS-HCl, pH 7.4). The protein content is estimated by the Bradford or Lowry method. The volume of the membrane suspension is adjusted with the membrane buffer (50 mM Tris-HCl containing 0.1% BSA and 0.1 mM PMSF) to give 3.0 mg/mL (or as appropriate) of protein. The membranes are aliquoted and stored at −70° C.
In wells of a 96-well format microtiter plate, is added 90, 110 or 130 μL (to make up a final volume of 200 μL) of assay buffer containing 50 mM of Tris-HCl (pH 7.4), […], 1 mg % aprotinin, 1 mg % leupeptin, 2 mg % 1,10-phenanthroline, 10 mg % trypsin inhibitor, and 0.1 mM PMSF. The inhibitors are added on the day of the experiment. The components are mixed at room temperature, and then kept in ice bath following adjustment of the pH to 7.4. […]
One may read the inhibition as the change of the read-out against control, counted positive when it falls. For `COc1cc(C2=CCCCC2)c(Cl)cc1C(=O)N1Cc2ccc(C(=O)N(C)CCCN(C)C)n2Cc2ccccc21` [Example 2, 10-(5-Chloro-4-cyclohex-1-en-1-yl-2-methoxybenzoyl)-N-[3-(dimethylamino)propyl]-N-methyl-10,11-dihydro-5H-pyrrolo[2,1-c][1,4]benzodiazepine-3-carboxamide], the inhibition at 0.1 µM was found to be 4%. Turning to `Cc1cc(C(=O)N2Cc3ccc(C(=O)N4CCN(C)CC4)n3Cc3ccccc32)ccc1C1=CCCCC1` [Example 4, [10-(4-Cyclohex-1-en-1-yl-3-methyl-benzoyl)-10,11-dihydro-5H-pyrrolo[2,1-c][1,4]benzodiazepin-3-yl]-(4-methyl-piperazin-1-yl)-methanone], the inhibition at 0.1 µM came out at 11%.

With `Cc1cc(C(=O)N2Cc3ccc(C(=O)N4CCN(CCCN(C)C)CC4)n3Cc3ccccc32)ccc1C1=CCCCC1` [Example 5, [10-(4-Cyclohex-1-en-1-yl-3-methyl-benzoyl)-10,11-dihydro-5H-pyrrolo[2,1-c][1,4]benzodiazepin-3-yl]-[4-(3-dimethylamino-propyl)-piperazin-1-yl]-methanone], the inhibition at 0.1 µM was determined as 19%.

With `Cc1cc(C(=O)N2Cc3ccc(C(=O)N4CCN(C)CC4)n3Cc3ccccc32)ccc1C1=CCCc2ccccc21` [Example 6, {10-[4-(3,4-Dihydro-naphthalen-1-yl)-3-methyl-benzoyl]-10,11-dihydro-5H-benzo[e]pyrrolo[1,2-a][1,4]diazepin-3-yl}-(4-methyl-piperazin-1-yl)-methanone], the inhibition at 0.1 µM amounted to 17%. With `Cc1cc(C(=O)N2Cc3ccc(C(=O)N4CCN(CCCN(C)C)CC4)n3Cc3ccccc32)ccc1C1=CCCc2ccccc21` [Example 7, {10-[4-(3,4-Dihydro-naphthalen-1-yl)-3-methyl-benzoyl]-10,11-dihydro-5H-pyrrolo[2,1-c][1,4]benzodiazepin-3-yl}-[4-(3-dimethylamino-propyl)-piperazin-1-yl]-methanone], the inhibition at 0.1 µM was 30%. On the same count and under the same terms, in the case of `CC1=C(c2ccc(C(=O)N3Cc4ccc(C(=O)N5CCN(C)CC5)n4Cc4ccccc43)cc2C)CCCC1O` (stereo not drawn) [Example 10, [4-(3-Hydroxy-2-methyl-cyclohex-1-en-1-yl)-3-methyl-phenyl]-[3-(4-methyl-piperazine-1carbonyl)-10,11-dihydro-5H-pyrrolo[2,1-c][1,4]benzodiazepin-10-yl]-methanone] it was -8%. In the case of `Cc1cc(C(=O)N2Cc3ccc(C(=O)N4CCCN(C)CC4)n3Cc3ccccc32)ccc1C1=CCCCC1` [Example 13, {10-[4-(1-Cyclohex-1-en-1-yl)-3-methylbenzoyl]-10,11-dihydro-5H-pyrrolo[2,1-c][1,4]benzodiazepin-3-yl}(4-methyl-1,4-diazepan-1-yl)methanone], the “V2 % inhibition @ 100 nM” value is given as 3%. For `Cc1cc(C(=O)N2Cc3ccc(C(=O)NCCCN(C)C)n3Cc3ccccc32)ccc1C1=CCCCC1` [Example 14, 10-[4-(1-Cyclohex-1-en-1-yl)-3-methylbenzoyl]-N-[3-(dimethylamino)propyl]-10,11-dihydro-5H-pyrrolo[2,1-c][1,4]benzodiazepine-3-carboxamide], the “V2 % inhibition @ 100 nM” value is given as 5%.

Consider `Cc1cc(C(=O)N2Cc3ccc(C(=O)N(C)CCN(C)C)n3Cc3ccccc32)ccc1C1=CCCCC1` [Example 15, 10-[4-(1-Cyclohex-1-en-1-yl)-3-methylbenzoyl]-N-[2-(dimethylamino)ethyl]-N-methyl-10,11-dihydro-5H-pyrrolo[2,1-c][1,4]benzodiazepine-3-carboxamide], for which the “V2 % inhibition @ 100 nM” value worked out at 5%. Still for that read-out and setting: next, `Cc1cc(C(=O)N2Cc3ccc(C(=O)N(C)CCCN(C)C)n3Cc3ccccc32)ccc1C1=CCCCC1` [Example 16, 10-[4-(1-Cyclohex-1-en-1-yl)-3-methylbenzoyl]-N-[3-(dimethylamino)propyl]-N-methyl-10,11-dihydro-5H-pyrrolo[2,1-c][1 ,4]benzodiazepine-3-carboxamide]: 10%; `Cc1cc(C(=O)N2Cc3ccc(C(=O)N4CCC(N5CCCCC5)CC4)n3Cc3ccccc32)ccc1C1=CCCCC1` [Example 17, {10-[4-(1-Cyclohex-1-en-1-yl)-3-methylbenzoyl]-10,11-dihydro-5H-pyrrolo[2,1-c][1,4]benzodiazepin-3-yl}[4-(1-piperidinyl)-1-piperidinyl]methanone]: 2%. As to `Cc1cc(C(=O)N2Cc3ccc(C(=O)NCCCn4ccnc4)n3Cc3ccccc32)ccc1C1=CCCCC1` [Example 18, 10-[4-(1-Cyclohex-1-en-1-yl)-3-methylbenzoyl]-N-[3-(1H-imidazol-1-yl)propyl]10,11-dihydro-5H-pyrrolo[2,1-c][1,4]benzodiazepine-3-carboxamide], the “V2 % inhibition @ 100 nM” value is reported as 20%. Take `Cc1cc(C(=O)N2Cc3ccc(C(=O)N4CCC(N5CCCC5)CC4)n3Cc3ccccc32)ccc1C1=CCCCC1` [Example 19, {10-[4-(1-Cyclohex-1-en-1-yl)-3-methylbenzoyl]-10,11-dihydro-5H-pyrrolo[2,1c][1,4]benzodiazepin-3-yl}[4-(1-pyrrolidinyl)-1-piperidinyl]methanone]: the “V2 % inhibition @ 100 nM” value amounted to 18%. On the same count and under the same terms, next, `Cc1cc(C(=O)N2Cc3ccc(C(=O)NCCN4CCCCC4)n3Cc3ccccc32)ccc1C1=CCCCC1` [Example 20, 10-[4-(1-Cyclohex-1-en-1-yl)-3-methylbenzoyl]-N-[2-(1-piperidinyl)ethyl]-10,11-dihydro-5H-pyrrolo[2,1-c][1,4]benzodiazepine-3-carboxamide]: 14%. On the same count and under the same terms, in the case of `Cc1cc(C(=O)N2Cc3ccc(C(=O)NCCC4CCCN4C)n3Cc3ccccc32)ccc1C1=CCCCC1` (stereo not drawn) [Example 21, 10-[4-(1-Cyclohex-1-en-1-yl)-3-methylbenzoyl]-N-[2-(1-methyl-2-pyrrolidinyl)ethyl]-10,11-dihydro-5H-pyrrolo[2,1-c][1,4]benzodiazepine-3-carboxamide] it was 11%. In the case of `Cc1cc(C(=O)N2Cc3ccc(C(=O)N4CCN(CCN(C)C)CC4)n3Cc3ccccc32)ccc1C1=CCCCC1` [Example 22, {10-[4-(1-Cyclohex-1-en-1-yl)-3-methylbenzoyl]-10,11-dihydro-5H-pyrrolo[2,1-c][1,4]benzodiazepin-3-yl}{4-[2-(dimethylamino)ethyl]-1-piperazinyl}methanone], the “V2 % inhibition @ 100 nM” value is recorded as 13%. For the compound `Cc1cc(C(=O)N2Cc3ccc(C(=O)N4CCN(CCN5CCOCC5)CC4)n3Cc3ccccc32)ccc1C1=CCCCC1` [Example 23, {10-[4-(1-Cyclohex-1-en-1-yl)-3-methylbenzoyl]-10,11-dihydro-5H-pyrrolo[2,1-c][1,4]benzodiazepin-3-yl}{4-[2-(4-morpholinyl)ethyl]-1-piperazinyl}methanone], the “V2 % inhibition @ 100 nM” value came to 18%.

The same experiment, now with this note: value in parentheses.
As usually defined, the IC50 is the point on the concentration scale where inhibition reaches its midpoint. For `COc1cc(C2=CCCCC2)c(Cl)cc1C(=O)N1Cc2ccc(C(=O)N(C)CCCN(C)C)n2Cc2ccccc21` [Example 3, 10-(5-Chloro-4-cyclohex-1-en-1-yl-2-methoxybenzoyl)-N-[3-(dimethylamino)propyl]-N-methyl-10,11-dihydro-5H-pyrrolo[2,1-c][1,4]benzodiazepine-3-carboxamide citric acid salt], the IC50 was determined as 5.84 µM.
